Earlier results in patent publication US10874615B2, “Formulation having controlled, delayed release of active ingredient” (Merck Patent GmbH, priority 2015, dated 2020).

Settings: after oral administration; first-pass metabolism

bioavailability: 25-30%
Structure (SMILES): CC(C)NCC(O)COc1cccc2ccccc12 (stereo not shown) [propranolol]
